# Data reported in ChEMBL document CHEMBL3045153, “Screening of flavonoids for antitubercular activity and their structureactivity relationships” (2013).
# The source made the active and inactive calls. The calls are words filed in the database; no cut-off is given here.
# Tested on: Mycobacterium tuberculosis
# Test: Antitubercular activity against Mycobacterium tuberculosis H37Rv ATCC 27294 measured every 24 hr by BACTEC 460 radiometric assay
# Assay type: functional
# Details: H37Rv ATCC 27294, 24 h
row,Compound,MIC [µg/mL]
1,O=c1cc(-c2ccc(O)c(O)c2)oc2cc(O)cc(O)c12 [LUTEOLIN],25
2,O=c1cc(-c2ccccc2)oc2cc(O)c(O)c(O)c12 [BAICALEIN],50
3,CO[C@H]1/C=C/O[C@@]2(C)Oc3c(C)c(O)c4c(O)c(c(/C=N/N5CCN(C)CC5)c(O)c4c3C2=O)NC(=O)/C(C)=C\C=C\[C@H](C)[C@H](O)[C@@H](C)[C@@H](O)[C@@H](C)[C@H](OC(C)=O)[C@@H]1C [RIFAMPIN],2
4,CN[C@@H]1[C@H](O[C@H]2[C@H](O[C@H]3[C@H](O)[C@@H](O)[C@H](N=C(N)N)[C@@H](O)[C@@H]3N=C(N)N)O[C@@H](C)[C@]2(O)C=O)O[C@@H](CO)[C@H](O)[C@H]1O [STREPTOMYCIN],2
5,O=c1c(O)c(-c2ccc(O)c(O)c2)oc2cc(O)cc(O)c12 [QUERCETIN],50
6,O=c1c(O)c(-c2cc(O)c(O)c(O)c2)oc2cc(O)cc(O)c12 [MYRICETIN],50
7,COc1c(O)cc2oc(-c3ccc(O)cc3)cc(=O)c2c1O [HISPIDULIN],100

# Tested on: Mycobacterium tuberculosis
# Test: Antitubercular activity against Mycobacterium tuberculosis H37Rv ATCC 27294 at 100 ug/ml measured every 24 hr by BACTEC 460 radiometric assay
# Assay type: functional, organism-based
# Details: not given
row,Compound,Activity
1,O=c1c(O)c(-c2ccccc2)oc2cc(O)cc(O)c12,inactive
2,COc1ccc(-c2oc3cc(OC)c(OC)c(O)c3c(=O)c2OC)cc1O,inactive
3,C[C@@H]1O[C@@H](OC[C@H]2O[C@@H](Oc3c(-c4ccc(O)c(O)c4)oc4cc(O)cc(O)c4c3=O)[C@H](O)[C@@H](O)[C@@H]2O)[C@H](O)[C@H](O)[C@H]1O,inactive
4,C[C@H]1O[C@H](Oc2c(-c3ccc(O)cc3)oc3cc(O)cc(O)c3c2=O)[C@@H](O)[C@@H](O)[C@@H]1O,inactive
5,COc1c(O)cc2oc(-c3ccccc3)cc(=O)c2c1O,inactive
6,O=c1cc(-c2ccc(O)cc2)oc2cc(OC3O[C@H](CO)[C@@H](O)[C@H](O)[C@H]3O)cc(O)c12 (some centres not stated),inactive
7,COc1ccc([C@@H]2CC(=O)c3c(O)cc(O[C@@H]4O[C@H](CO[C@@H]5O[C@@H](C)[C@H](O)[C@@H](O)[C@H]5O)[C@@H](O)[C@H](O)[C@H]4O)cc3O2)cc1O,inactive
8,O=c1cc(-c2ccc(O)cc2)oc2cc(O)cc(O)c12,inactive
9,O=c1cc(-c2ccccc2)oc2cc(O)cc(O)c12,inactive
10,O=c1c(O)c(-c2ccc(O)cc2)oc2cc(O)cc(O)c12,inactive
